The source of these data is ChEMBL document CHEMBL1201862, “PubChem BioAssay data set” (2004).

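Five compound concentrations were applied to cells in 96-well plates for 48 hours; endpoints were derived by simple linear interpolation of the resulting dose-response curve. At the GI50, growth is halved.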 Active and inactive are the calls of the source. Rule as the data show it: active = GI50 up to about 1.1 µM and inactive = higher.

Test in all cases: NCI anticancer screen, dose series, 48 h
The subject of experiment [1] is LOX IMVI.
Experiment [2] has as its system NCI-H522.
For experiment [3], the system named is SK-OV-3.
Experiment [4] has as its system A549.
In experiment [5] the test system is SK-MEL-28.
Experiment [6] deals with MOLT-4.
The subject of experiment [7] is KM12.
For experiment [8], the system named is UACC-62.
Experiment [9] has as its system COLO 205.
Experiment [10] concerns RPMI-8226.
Experiment [11] deals with MCF7.
Experiment [12] concerns MDA-MB-231.
Experiment [13] has as its system PC-3.
Experiment [14] deals with SK-MEL-5.
In experiment [15] the test system is Malme-3M.
Experiment [16] concerns UO-31.
The test system of experiment [17] is Hs-578T.
Experiment [18] deals with NCI-H23.
The subject of experiment [19] is OVCAR-5.
Experiment [20] relates to SN12C.

For the compound `C=C(C(=O)OC)c1cc2ccccc2n1S(=O)(=O)c1ccccc1`, the GI50 in [1] is 2.43 µM (inactive); in experiment [2], 0.891 µM (active); in [3] it was 11.3 µM (inactive); in [4], 3.05 µM (inactive); in [5], 2.38 µM (inactive); in experiment [6] it was 2.21 µM (inactive). Further, the GI50 in experiment [7] is 2.04 µM (inactive); in [8], 4.52 µM (inactive); in experiment [9], 1.95 µM (inactive); in [10], 1.28 µM (inactive); in experiment [11], 1.38 µM (inactive); in experiment [12], 1.98 µM (inactive). Besides, the GI50 is 1.96 µM (inactive) in [13]; 2.14 µM (inactive) in experiment [14]; 2.11 µM (inactive) in [15]; 2.36 µM (inactive) in [16]; 4.11 µM (inactive) in experiment [17]; 3.44 µM (inactive) in experiment [18]. The GI50 in experiment [19] is 5.68 µM (inactive); in experiment [20], 2.67 µM (inactive).
Consider `CCOC(=O)c1c(N2CCOCC2)[nH]c(=O)c(C(c2c(O)c(C(=O)OCC)c(N3CCOCC3)[nH]c2=O)C(C)C)c1O`, for which the GI50 in experiment [1] was > 100 µM (inactive); in experiment [2], > 100 µM (inactive); in experiment [3], 86.5 µM (inactive); in [4], > 100 µM (inactive); in experiment [5], > 100 µM (inactive); in [6] it was > 100 µM (inactive). Besides, the GI50 in [7], in experiment [8], in experiment [9], in [10], in experiment [11] and in experiment [12] was > 100 µM (inactive) in each case. The GI50 in experiment [13] is > 100 µM (inactive); in [14] it was > 100 µM (inactive); in experiment [15], > 100 µM (inactive); in [16] it was > 100 µM (inactive); in [17] it was 47.9 µM (inactive); in experiment [18], > 100 µM (inactive). Besides, the GI50 is 73.8 µM (inactive) in experiment [19] and > 100 µM (inactive) in [20].
As for `O=C1C(Cl)C(c2cc3cc(Br)ccc3nc2Cl)N1c1ccc(Cl)cc1` (stereo not given), the GI50 in experiment [1] was 0.906 µM (active); in [2], 3.95 µM (inactive); in experiment [3], 10.3 µM (inactive); in experiment [4] it was 10.4 µM (inactive); in experiment [5], 11.1 µM (inactive); in experiment [6], 3.89 µM (inactive). The GI50 in [7] is 8.97 µM (inactive); in experiment [8], 4.22 µM (inactive); in experiment [9], 4.89 µM (inactive); in [10], 5.21 µM (inactive); in experiment [11], 3.74 µM (inactive); in experiment [12] it was 3.9 µM (inactive). Also, the GI50 in experiment [13] is 5.69 µM (inactive); in experiment [14] it was 3.21 µM (inactive); in experiment [15] it was 4.56 µM (inactive); in experiment [16] it was 0.815 µM (active); in experiment [17], 9.2 µM (inactive); in [18] it was 5.7 µM (inactive). Also, the results for the GI50 in [19] and in [20] were 10.7 µM (inactive) and 4.45 µM (inactive), respectively.
Take `COCN1C(N)=C(C(=O)OC(C)(C)C)C2=CC(=O)C=CC21C` (stereo not given): the GI50 in [1] was 13.6 µM (inactive); in experiment [2], 3.4 µM (inactive); in experiment [3], 34.6 µM (inactive); in experiment [4], 18.9 µM (inactive); in experiment [5] it was 20.3 µM (inactive); in experiment [6], 3.7 µM (inactive). Further, the GI50 is 16.6 µM (inactive) in [7]; 15.6 µM (inactive) in [8]; 5.01 µM (inactive) in experiment [9]; 20.4 µM (inactive) in [10]; 11 µM (inactive) in experiment [11]; 15.3 µM (inactive) in [12]. For the same compound, the GI50 was 16.9 µM (inactive) in experiment [13]; 15.3 µM (inactive) in experiment [14]; 9.75 µM (inactive) in experiment [15]; 13.6 µM (inactive) in [16]; 15.2 µM (inactive) in experiment [17]; 15.4 µM (inactive) in [18]. In addition, the GI50 in experiment [19] is 18.1 µM (inactive); in [20], 25.8 µM (inactive).
Take `COc1ccc(C(c2ccc3c(c2)OCO3)N2C(=O)CCC2C(=O)O)cc1` (stereo not given): the GI50 in experiment [1], in [2], in [3], in experiment [4], in experiment [5] and in experiment [6] was > 100 µM (inactive) in each case. In addition, the GI50 in [7], in [8], in experiment [9], in [10], in [11] and in experiment [12] was > 100 µM (inactive) in each case. The GI50 in [13] is > 100 µM (inactive); in experiment [14], > 100 µM (inactive); in experiment [15], > 100 µM (inactive); in experiment [16], > 100 µM (inactive); in experiment [17], > 10 µM (inactive); in experiment [18], > 100 µM (inactive). For the same compound, the GI50 in experiment [19] and in experiment [20] was > 100 µM (inactive) throughout.
`Cc1cccc(Nc2nc3ccccc3nc2NS(=O)(=O)c2ccccc2)c1`: the GI50 in [1] was 45.4 µM (inactive); in [2], 17.3 µM (inactive); in experiment [3], 25.2 µM (inactive); in [4], 14.1 µM (inactive); in [5], 38.7 µM (inactive); in experiment [6], 12.6 µM (inactive). In addition, the GI50 in experiment [7] was 20.3 µM (inactive); in experiment [8], 25.6 µM (inactive); in experiment [9], 16.1 µM (inactive); in experiment [10] it was 7.01 µM (inactive); in experiment [11] it was 26.5 µM (inactive); in experiment [12] it was 39.5 µM (inactive). For the same compound, the GI50 in [13] is 14.4 µM (inactive); in experiment [14] it was 19.4 µM (inactive); in [15] it was 17.1 µM (inactive); in [16] it was 15.1 µM (inactive); in experiment [17], 33 µM (inactive); in experiment [18], 18.3 µM (inactive). Besides, the GI50 in [19] was > 100 µM (inactive); in experiment [20] it was 22.2 µM (inactive).
As for `COc1ccc2c(=O)c3ccoc3n(CC=C(C)C)c2c1` [ACROPHYLLINE], the GI50 in [1] was 42.3 µM (inactive); in experiment [2], 2.65 µM (inactive); in [3], 44.7 µM (inactive); in experiment [4] it was 7.14 µM (inactive); in [5] it was 60.5 µM (inactive); in [6], 25.2 µM (inactive). Besides, the GI50 in experiment [7] was 45.9 µM (inactive); in [8], 48.4 µM (inactive); in experiment [9] it was > 85.3 µM (inactive); in experiment [10], 22.4 µM (inactive); in experiment [11], 33.7 µM (inactive); in experiment [12] it was 72.9 µM (inactive). Besides, the GI50 in [13] was 36.4 µM (inactive); in [14], 32 µM (inactive); in experiment [15], 3.84 µM (inactive); in experiment [16], 18.2 µM (inactive); in experiment [17], 31.3 µM (inactive); in experiment [18], 46.1 µM (inactive). The GI50 in experiment [19] and in [20] was > 100 µM (inactive) in each case.
In the case of `CC(C)N(C(C)C)S(=O)(=O)C[C@]12CC[C@H](CC13OCC(CS(=O)(=O)c1ccccc1)O3)C2(C)C` (stereo not given in full), the GI50 in experiment [1] was 64.6 µM (inactive); in experiment [2], 21.8 µM (inactive); in [3], 45.5 µM (inactive); in [4] it was 36.6 µM (inactive); in experiment [5] it was > 93.5 µM (inactive); in [6], 6.98 µM (inactive). The GI50 was 36.4 µM (inactive) in experiment [7]; 49 µM (inactive) in experiment [8]; 17.6 µM (inactive) in [9]; 26.5 µM (inactive) in [10]; 36 µM (inactive) in experiment [11]; > 100 µM (inactive) in experiment [12]. Besides, the GI50 in [13] was 35.3 µM (inactive); in experiment [14], 29.4 µM (inactive); in [15], 89.1 µM (inactive); in experiment [16] it was 69.5 µM (inactive); in experiment [17], 94.4 µM (inactive); in experiment [18] it was 47.3 µM (inactive). Further, the GI50 in experiment [19] was > 76.4 µM (inactive); in [20], 47.8 µM (inactive).
Regarding `O=C1CSC(c2ccccc2O)N1c1nc2cc3sc(N4C(=O)CSC4c4ccccc4O)nc3cc2s1` (stereo not given), the GI50 is 24 µM (inactive) in experiment [1]; 7.06 µM (inactive) in [2]; > 100 µM (inactive) in [3]; 3.85 µM (inactive) in experiment [4]; > 79.1 µM (inactive) in [5]; 4.06 µM (inactive) in [6]. The GI50 in experiment [7] was > 68.4 µM (inactive); in experiment [8], > 87.5 µM (inactive); in experiment [9], 3.61 µM (inactive); in experiment [10], 32.1 µM (inactive); in [11], 11.5 µM (inactive); in [12], > 57.8 µM (inactive). Further, the GI50 in experiment [13] is 45.7 µM (inactive); in [14] it was 50.5 µM (inactive); in [15], > 77.3 µM (inactive); in experiment [16], 23.3 µM (inactive); in [17], > 58.9 µM (inactive); in experiment [18] it was 9.57 µM (inactive). Further, the results for the GI50 in [19] and in experiment [20] were > 100 µM (inactive) and > 40.5 µM (inactive), respectively.
For `C[As+](C)(c1ccc(Br)c([N+](=O)[O-])c1)c1ccc(Br)c([N+](=O)[O-])c1`, the GI50 in experiment [1] was > 100 µM (inactive); in experiment [2], 87.7 µM (inactive); in experiment [3], > 100 µM (inactive); in experiment [4], > 100 µM (inactive); in experiment [5], 27.9 µM (inactive); in [6] it was > 100 µM (inactive). For the same compound, the GI50 was > 100 µM (inactive) in experiment [7]; > 100 µM (inactive) in experiment [8]; > 100 µM (inactive) in experiment [9]; 44.7 µM (inactive) in experiment [10]; > 100 µM (inactive) in experiment [11]; > 100 µM (inactive) in experiment [12]. In addition, the GI50 was > 100 µM (inactive) in experiment [13]; 9.12 µM (inactive) in experiment [14]; 18.5 µM (inactive) in experiment [15]; > 100 µM (inactive) in experiment [16]; > 100 µM (inactive) in experiment [17]; > 100 µM (inactive) in experiment [18]. Moreover, the GI50 in experiment [19] and in experiment [20] was > 100 µM (inactive) in each case.
